Results published in US8455398B2, “Amide compounds, preparation methods and uses thereof” (Sinochem Corporation, priority 2008, dated 2013).

How the values were obtained:
[1] = tested on: cucumber anthracnose; experiment: Fungicidal activity in vivo, cucumber anthracnose; conditions: plants sprayed, inoculated after 24 hours
Procedure: (§1) Determine the fungicidal activities of the compounds of the present invention against plant diseases, carried by following procedure:
(§2) Determination of Fungicidal Activity In Vivo:
(§3) Compounds were dissolved in acetone, and diluted to required concentration with water containing 0.1% of tween 80. Plants were sprayed by a sprayer. After 24 hours, plants were innoculated and then transferred into a dew chamber for infection. After the infection period normally one week), the plants were scored for disease control.

[2] = tested on: diamond backmoth (Plutella xylostella); experiment: Insecticidal activity, spray test, diamond backmoth; format: in vivo; conditions: 600 ppm, mortality after two to three days
Procedure: (§4) Determination of insecticidal and acaricidal activity of selected compounds were carried out by following procedure:
(§5) Compounds were dissolved in mixed solvent (acetone:methanol=1:1), and diluted to required concentration with water containing 0.1% of tween 80.
(§6) The armyworm (Leucania separata), the second stage Juvenile of diamond backmoth (Plutella xylostella), lesser army worm (Spodoptera exiqua), green peach aphids (Myzus persicae) and mite (Tetranychus cinnabarinus) were used in biological test. The test was employed either spraying by airbrush. A test solution (0.5 ml) was sprayed at the pressure of 10 psi (0.7 kg/cm^2). Percent mortality was determined after two to three days.

[3] = tested on: lesser army worm (Spodoptera exiqua); experiment: Insecticidal activity, spray test, lesser armyworm; format: in vivo; conditions: mortality after two to three days
Procedure: as §4, §5, §6

[4] = tested on: plant diseases; experiment: Fungicidal activity in vivo against plant diseases (overall); conditions: 400 ppm
Procedure: as §1, §2, §3

Structure (SMILES) | control of diamond backmoth [2] [%] | control of lesser armyworm ([3]; 600 ppm) [%] | further results
Cc1cc(C(=O)NCCNc2ncc(C#N)cc2Cl)ccc1NC(=O)c1cc(Br)nn1-c1ncccc1Cl [83 in Table 96] |  |  | control of cucumber anthracnose ([1]; 400 ppm): 100%
Cc1cc(Cl)cc(C(=O)NCCNc2ccc(C(F)(F)F)cc2Cl)c1NC(=O)c1cc(Br)nn1-c1ncccc1Cl [Table 173-83] | 100 | 100 | 
Cc1cc(Cl)cc(C(=O)NCCNc2ncccc2Cl)c1NC(=O)c1cc(Br)nn1-c1ncccc1Cl [Table 179-83] | 100 | 100 | 
Cc1cc(Cl)cc(C(=O)NCCCNc2ncccc2Cl)c1NC(=O)c1cc(Br)nn1-c1ncccc1Cl [Table 179-199] | 100 | 100 | 
Cc1cc(Cl)cc(C(=O)N2CCN(c3ncccc3Cl)CC2)c1NC(=O)c1cc(Br)nn1-c1ncccc1Cl [Table 179-303] | 100 | 100 | 
Cc1cc(Cl)cc(C(=O)NC(C)CNc2ncccc2Cl)c1NC(=O)c1cc(Br)nn1-c1ncccc1Cl (centres unmarked) [Table 179-304] | 100 | 100 | control of cucumber anthracnose ([1]; 50 ppm): 100%; control of cucumber anthracnose ([1]; 400 ppm): 100%; control of lesser armyworm ([3]; 1 ppm): 100%; control of lesser armyworm ([3]; 10 ppm): 100%
Cc1cc(Cl)cc(C(=O)NCCNc2ncc(C(F)(F)F)cc2Cl)c1NC(=O)c1cc(Br)nn1-c1ncccc1Cl [Table 181-83] | 100 | 100 | control of cucumber anthracnose ([1]; 50 ppm): 100%; control of cucumber anthracnose ([1]; 400 ppm): 100%; control of lesser armyworm ([3]; 0.1 ppm): more than 60%; control of lesser armyworm ([3]; 1 ppm): 100%; control of lesser armyworm ([3]; 10 ppm): 100%
Cc1cc(Cl)cc(C(=O)NCCCNc2ncc(C(F)(F)F)cc2Cl)c1NC(=O)c1cc(Br)nn1-c1ncccc1Cl [Table 181-199] | 100 | 100 | control of lesser armyworm ([3]; 1 ppm): 100%; control of lesser armyworm ([3]; 10 ppm): 100%
Cc1cc(Cl)cc(C(=O)N2CCN(c3ncc(C(F)(F)F)cc3Cl)CC2)c1NC(=O)c1cc(Br)nn1-c1ncccc1Cl [Table 181-303] | 100 | 100 | 
Cc1cc(Cl)cc(C(=O)NC(C)CNc2ncc(C(F)(F)F)cc2Cl)c1NC(=O)c1cc(Br)nn1-c1ncccc1Cl (centres unmarked) [Table 181-304] | 100 | 100 | 
Cc1cc(Cl)cc(C(=O)NCCNc2ncc(C#N)cc2Cl)c1NC(=O)c1cc(Br)nn1-c1ncccc1Cl [Table 182-83] | 100 | 100 | 
Cc1cc(Cl)cc(C(=O)NCCCNc2ncc(C#N)cc2Cl)c1NC(=O)c1cc(Br)nn1-c1ncccc1Cl [Table 182-199] | 100 | 100 | 
Cc1cc(Cl)cc(C(=O)NCCNc2ncc(Cl)cc2Cl)c1NC(=O)c1cc(Br)nn1-c1ncccc1Cl [Table 211-83] | 100 | 100 | control of cucumber anthracnose ([1]; 400 ppm): 100%
Cc1cc(Cl)cc(C(=O)NCCCNc2ncc(Cl)cc2Cl)c1NC(=O)c1cc(Br)nn1-c1ncccc1Cl [Table 211-199] | 100 | 100 | control of lesser armyworm ([3]; 10 ppm): 100%
CNC(=O)c1cc(Cl)cc(C)c1NC(=O)c1cc(Br)nn1-c1ncccc1Cl [chlorantraniliprole] |  |  | fungicidal activity [4]: no fungicidal activity
